ChEMBL document CHEMBL1201862, “PubChem BioAssay data set” (2004)
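Tested at 5 concentrations; 48 h exposure; 96-well plates; endpoints linearly interpolated, else capped at highest concentration. At the GI50, growth is halved.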 Calls of active or inactive are those of the source. No stated cut-off is given here; in the data, active = GI50 up to about 1.1 µM and inactive = higher.

Columns and labels:
Assay in all cases: NCI anticancer screen, dose series, 48 h
A549 = test system: A549
CAKI-1 = test system: CAKI-1
DU-145 = test system: DU-145
EKVX = test system: EKVX
HCC 2998 = test system: HCC 2998
HOP-92 = test system: HOP-92
HT-29 = test system: HT-29
Hs-578T = test system: Hs-578T
KM12 = test system: KM12
NCI-H226 = test system: NCI-H226
NCI-H460 = test system: NCI-H460
OVCAR-3 = test system: OVCAR-3
PC-3 = test system: PC-3
RPMI-8226 = test system: RPMI-8226
SK-MEL-28 = test system: SK-MEL-28
SR = test system: SR
UACC-257 = test system: UACC-257
UO-31 = test system: UO-31
CCRF-CEM = test system: CCRF-CEM
BT-549 = test system: BT-549

Measured: GI50

COc1c(-c2cc(C)c(Cl)c(=O)[nH]2)c(O)c(OC)c2occc12
inactive: A549 > 100 µM | CAKI-1 > 100 µM | DU-145 > 100 µM | EKVX > 100 µM | HCC 2998 > 100 µM | HOP-92 23.1 µM | HT-29 > 100 µM | Hs-578T > 10 µM | KM12 > 100 µM | NCI-H226 > 100 µM | NCI-H460 > 100 µM | OVCAR-3 > 100 µM | PC-3 > 100 µM | RPMI-8226 > 100 µM | SK-MEL-28 > 100 µM | SR 81.8 µM | UACC-257 > 100 µM | UO-31 38.5 µM

COc1ccc(/C(C)=C2\CCCN(Cc3ccccc3)C2)cc1
inactive: A549 32 µM | CAKI-1 22.6 µM | CCRF-CEM 20.2 µM | DU-145 34.6 µM | EKVX 37.1 µM | HCC 2998 21 µM | HOP-92 17.7 µM | HT-29 18.9 µM | Hs-578T 13.5 µM | KM12 17 µM | NCI-H226 21.5 µM | NCI-H460 22.4 µM | OVCAR-3 18.6 µM | PC-3 23 µM | RPMI-8226 18.6 µM | SK-MEL-28 22 µM | SR 20.4 µM | UACC-257 29.2 µM | UO-31 19.9 µM

NS(=O)(=O)c1ccc(NC(=S)NC=C2C(=O)c3ccccc3C2=O)cc1
inactive: A549 > 100 µM | CAKI-1 86.5 µM | CCRF-CEM > 100 µM | DU-145 94 µM | EKVX > 100 µM | HCC 2998 38.3 µM | HOP-92 23.7 µM | Hs-578T 14.4 µM | KM12 > 100 µM | NCI-H460 > 100 µM | OVCAR-3 55.8 µM | PC-3 > 100 µM | RPMI-8226 36.4 µM | SK-MEL-28 > 100 µM | SR 42 µM | UACC-257 > 100 µM | UO-31 22.6 µM

Cc1ccc(S(=O)(=O)Nn2c(S)c(C#N)c(-c3ccc(Cl)cc3)c(C#N)c2=O)cc1
inactive: A549 43.7 µM | BT-549 17.3 µM | CAKI-1 32.7 µM | CCRF-CEM 7.93 µM | DU-145 52.2 µM | EKVX 32.9 µM | HCC 2998 38.8 µM | HOP-92 59 µM | KM12 36.2 µM | NCI-H226 16.4 µM | NCI-H460 17 µM | OVCAR-3 53.6 µM | PC-3 24.4 µM | RPMI-8226 26.2 µM | SK-MEL-28 31.2 µM | SR 29.7 µM | UACC-257 45.3 µM | UO-31 19.1 µM

CCOC(=O)C(Cc1ccc2c(c1)CCC2)Cc1ccc2c(c1)CCC2
inactive: A549 > 100 µM | CAKI-1 > 100 µM | CCRF-CEM 27.1 µM | DU-145 > 100 µM | EKVX 91 µM | HCC 2998 95.9 µM | HOP-92 > 100 µM | HT-29 45.9 µM | Hs-578T > 100 µM | NCI-H460 > 100 µM | OVCAR-3 > 100 µM | PC-3 38.9 µM | RPMI-8226 44.4 µM | SK-MEL-28 > 100 µM | SR 25.1 µM | UACC-257 54.5 µM | UO-31 78 µM

O=C(Nc1ccc(Cl)cc1)NS(=O)(=O)c1c(-c2ccccc2)oc2ccccc2c1=O
inactive: A549 39 µM | CAKI-1 52.1 µM | CCRF-CEM 33.9 µM | DU-145 27.9 µM | EKVX > 100 µM | HCC 2998 54.2 µM | HOP-92 89.3 µM | HT-29 57.8 µM | Hs-578T > 100 µM | KM12 36.2 µM | NCI-H226 > 100 µM | NCI-H460 47.4 µM | PC-3 56.8 µM | RPMI-8226 58.9 µM | SK-MEL-28 > 100 µM | SR 24.2 µM | UACC-257 > 100 µM | UO-31 38.5 µM

CN(C)Nc1cc(=O)[nH]c(=O)[nH]1
inactive: A549 > 100 µM | BT-549 > 100 µM | CCRF-CEM > 100 µM | DU-145 > 100 µM | EKVX > 100 µM | HCC 2998 > 100 µM | HOP-92 > 100 µM | HT-29 > 100 µM | KM12 > 100 µM | NCI-H226 > 100 µM | NCI-H460 > 100 µM | OVCAR-3 > 100 µM | PC-3 > 100 µM | RPMI-8226 > 100 µM | SK-MEL-28 > 100 µM | SR > 100 µM | UACC-257 > 100 µM | UO-31 > 100 µM

O=c1c2c(-c3ccccc3)onc2n(-c2ccccc2)c(=O)n1-c1ccccc1
inactive: A549 > 100 µM | BT-549 19.2 µM | CAKI-1 > 100 µM | CCRF-CEM > 100 µM | EKVX 20.3 µM | HCC 2998 18.2 µM | HOP-92 > 100 µM | HT-29 21 µM | Hs-578T 28.4 µM | KM12 17.9 µM | NCI-H226 26.1 µM | NCI-H460 17.9 µM | OVCAR-3 15.1 µM | PC-3 18.6 µM | RPMI-8226 > 100 µM | SR > 100 µM | UACC-257 19.7 µM | UO-31 14.9 µM

COc1ccc(C2=Nc3c(nc(OC)[nH]c3=O)NC(c3ccccc3)C2)cc1 (stereo not drawn)
inactive: A549 34.4 µM | BT-549 31 µM | CAKI-1 52 µM | CCRF-CEM 30.8 µM | DU-145 42.3 µM | EKVX 33.9 µM | HOP-92 32.3 µM | HT-29 28.4 µM | KM12 18.2 µM | NCI-H226 36.6 µM | OVCAR-3 33.8 µM | PC-3 48 µM | RPMI-8226 32.7 µM | SK-MEL-28 19.1 µM | SR 53.1 µM | UACC-257 49.9 µM | UO-31 46.2 µM

O=c1[nH]c(Nc2cccc(C(F)(F)F)c2)nc2[nH]cnc12
inactive: A549 > 100 µM | CAKI-1 > 100 µM | CCRF-CEM > 100 µM | DU-145 > 100 µM | EKVX > 100 µM | HCC 2998 > 100 µM | HOP-92 > 100 µM | HT-29 77.1 µM | Hs-578T 75.7 µM | KM12 > 100 µM | NCI-H226 > 100 µM | OVCAR-3 > 100 µM | PC-3 75.2 µM | RPMI-8226 > 100 µM | SK-MEL-28 > 100 µM | SR > 100 µM | UACC-257 > 100 µM

O=C(Nn1c(-c2cccs2)nc2ccc(I)cc2c1=O)c1ccccc1
inactive: A549 18.8 µM | BT-549 16.4 µM | CAKI-1 21.9 µM | DU-145 20.6 µM | EKVX 27.8 µM | HCC 2998 22 µM | HOP-92 17.8 µM | HT-29 29.8 µM | KM12 27.9 µM | NCI-H226 28.5 µM | NCI-H460 26.8 µM | OVCAR-3 16.9 µM | PC-3 33.9 µM | SK-MEL-28 24.7 µM | SR 23.6 µM | UO-31 28.3 µM
